{"source": "paper PMC7278776", "about": "“Multidrug Resistance Modulation Activity of Silybin Derivatives and Their Anti-Inflammatory Potential” (Antioxidants, 2020)", "type_in_all_cases": "cell-based, human", "key": {"ABCB1 (P-gp)": {"system": "ABCB1 (P-gp)", "assay": "ABCB1 mRNA expression (real-time PCR)", "conditions": "10 µM, 48 h, without doxorubicin", "protocol": "(§1) The A2780/DOX cell line was seeded into 5 cm Petri dishes with DMEM medium at 1 × 10^5 cell/mL. […] After 48 h of treatment, the cells were washed with PBS and harvested using the standard trypsin-EDTA procedure. The harvested cells were centrifuged (3200× g; 10 min, 4 °C). The supernatant was discarded, and the pellets were washed with 1.5 mL of cooled PBS (5400× g; 10 min, 4 °C). The washing step was repeated with 1 mL of PBS and the cells were centrifuged again (10,000× g; 3 min, 4 °C). Afterwards, the pellets were resuspended in 1 mL of Trizol (Invitrogen, Carlsbad, CA, USA) and transferred into pre-cooled RNase-free microfuge tubes. The samples were stored at −80 °C.\n(§2) A Quant-iT RiboGreen RNA Assay Kit (Invitrogen) was used to determine the RNA concentration using the Infinite M200 plate reader (Tecan, Männedor, Switzerland). The cDNA was prepared from 0.5 µg of total RNA using a RevertAid First Strand Synthesis cDNA Kit (MBI Fermentas, Vilnius, Lithuania). The amplification of the ubiquitin C gene fragment was used to determine the quality of cDNA.\n(§3) The experiment was performed using the ViiA7 Real-Time polymerase chain reaction (PCR) System (Life Technologies, Camarillo, CA, USA) with a 384-well block. Before quantitative real-time PCR, the master mix was prepared by mixing 2 µL of 8 × diluted cDNA, 1.75 µL of RNase free water, 1 µL of 5 × HotFIREPol Probe quantitative PCR Mix Plus (Solis Biodyne, Tartu, Estonia) and 0.25 µL of specific 20 × TaqMan Gene Expression Assay (Life Technologies), giving 5 µL of final reaction volume. […] After each extension phase, the fluorescence values were acquired. Duplicate samples were used for measurement and samples with a standard deviation of duplicates > 1.0 cycle threshold (Ct) were re-analyzed. The real time PCR procedure was maintained according to MIQE (Minimum information for publication of quantitative real-time PCR experiments) guidelines. […]"}, "ABCC2 (MRP2)": {"system": "ABCC2 (MRP2)", "assay": "ABCC2 mRNA expression (real-time PCR)", "conditions": "10 µM, 48 h, without doxorubicin", "protocol": "as §1, §2, §3"}, "ABCA7": {"system": "ABCA7", "assay": "ABCA7 mRNA expression (real-time PCR)", "conditions": "A2780/DOX, 10 µM, 48 h, without doxorubicin", "protocol": "as §1\nA Quant-iT RiboGreen RNA Assay Kit (Invitrogen) was used to determine the RNA concentration using the Infinite M200 plate reader (Tecan, Männedor, Switzerland). […]\nThe experiment was performed using the ViiA7 Real-Time polymerase chain reaction (PCR) System (Life Technologies, Camarillo, CA, USA) with a 384-well block. Before quantitative real-time PCR, the master mix was prepared by mixing 2 µL of 8 × diluted cDNA, 1.75 µL of RNase free water, 1 µL of 5 × HotFIREPol Probe quantitative PCR Mix Plus (Solis Biodyne, Tartu, Estonia) and 0.25 µL of specific 20 × TaqMan Gene Expression Assay (Life Technologies), giving 5 µL of final reaction volume. […] After each extension phase, the fluorescence values were acquired. […]"}}}
{"smiles": "COc1cc([C@@H]2Oc3cc([C@H]4Oc5cc(O)cc(O)c5C(=O)[C@@H]4O)ccc3O[C@H]2CO)ccc1O", "note": "[Silybin B, silybin B]", "values": [{"measurement": "downregulation of ABCB1 (P-gp) expression", "setting": "ABCB1 (P-gp)", "value": 79, "unit": "%"}, {"measurement": "ABCB1 Expression Difference", "setting": "ABCB1 (P-gp); A2780/DOX", "value": 0.208}, {"measurement": "ABCB1 Treated vs. Untreated", "setting": "ABCB1 (P-gp); A2780/DOX", "value": "DOWN"}, {"measurement": "downregulation of ABCC2 (MRP2) expression", "setting": "ABCC2 (MRP2)", "value": 66, "unit": "%"}, {"measurement": "ABCC2 Expression Difference", "setting": "ABCC2 (MRP2); A2780/DOX", "value": 0.341}, {"measurement": "ABCC2 Treated vs. Untreated", "setting": "ABCC2 (MRP2); A2780/DOX", "value": "DOWN"}]}
{"smiles": "COc1cc(C2Oc3cc([C@H]4Oc5cc(O)cc(O)c5C(=O)[C@@H]4O)ccc3OC2CO)ccc1O", "note": "(stereo partly shown) [Silybin AB, silybin]", "values": [{"measurement": "ABCA7 Expression Difference", "setting": "ABCA7", "value": 2.704}]}
